Data on 3 compounds can be found in paper PMC6189519, “Evaluation of the DREAM Technique for a High-Throughput Deorphanization of Chemosensory Receptors in Drosophila” (Frontiers in Molecular Neuroscience, 2018).

Molecules are shown by their SMILES.

What all share (experiment): single sensillum recording of the wild-type OSN expressing the receptor
For one assay, the target named is T1, Or49b (Drosophila melanogaster, UniProt Q9V6H2).
T1 construct: native full-length receptor in olfactory sensory neurons (ab6B) of wild-type flies (single sensillum recording); with Odorant receptor coreceptor
T1 sequence (Q9V6H2 1-375): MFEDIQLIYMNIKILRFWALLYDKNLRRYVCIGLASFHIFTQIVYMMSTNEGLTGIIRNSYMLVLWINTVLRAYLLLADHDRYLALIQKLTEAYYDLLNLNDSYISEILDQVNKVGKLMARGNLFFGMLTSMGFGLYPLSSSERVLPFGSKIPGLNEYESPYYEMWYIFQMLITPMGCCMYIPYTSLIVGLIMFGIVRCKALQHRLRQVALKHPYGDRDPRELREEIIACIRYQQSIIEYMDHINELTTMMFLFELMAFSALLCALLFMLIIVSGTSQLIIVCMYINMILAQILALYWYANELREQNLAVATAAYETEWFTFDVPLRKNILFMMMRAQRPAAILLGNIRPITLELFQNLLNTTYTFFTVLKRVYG
T1 sequence (Q9VNB5 1-486 partner): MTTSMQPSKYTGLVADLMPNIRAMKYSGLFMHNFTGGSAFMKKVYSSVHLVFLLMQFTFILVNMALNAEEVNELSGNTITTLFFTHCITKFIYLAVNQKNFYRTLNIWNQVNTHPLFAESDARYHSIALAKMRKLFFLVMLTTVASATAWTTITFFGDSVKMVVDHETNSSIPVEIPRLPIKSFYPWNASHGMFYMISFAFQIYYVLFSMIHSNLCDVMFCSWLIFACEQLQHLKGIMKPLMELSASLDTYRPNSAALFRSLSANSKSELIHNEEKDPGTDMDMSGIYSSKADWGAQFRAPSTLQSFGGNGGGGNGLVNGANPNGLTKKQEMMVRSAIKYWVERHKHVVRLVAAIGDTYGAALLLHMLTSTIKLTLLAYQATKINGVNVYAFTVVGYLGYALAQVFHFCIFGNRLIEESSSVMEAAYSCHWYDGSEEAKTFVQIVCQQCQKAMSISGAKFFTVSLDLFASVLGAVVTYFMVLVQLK
The note with it: agonist (best ligand); odorant dilution 10^-1 in hexane, 0.5 s stimulus.

Another assay concerns the target T2, Or19a (Drosophila melanogaster, UniProt Q9I816).
T2 construct: native full-length receptor in olfactory sensory neurons (ai2 sensillum) of wild-type flies; paralogue Or19b may be co-expressed; with Odorant receptor coreceptor
T2 sequence (Q9I816 1-387): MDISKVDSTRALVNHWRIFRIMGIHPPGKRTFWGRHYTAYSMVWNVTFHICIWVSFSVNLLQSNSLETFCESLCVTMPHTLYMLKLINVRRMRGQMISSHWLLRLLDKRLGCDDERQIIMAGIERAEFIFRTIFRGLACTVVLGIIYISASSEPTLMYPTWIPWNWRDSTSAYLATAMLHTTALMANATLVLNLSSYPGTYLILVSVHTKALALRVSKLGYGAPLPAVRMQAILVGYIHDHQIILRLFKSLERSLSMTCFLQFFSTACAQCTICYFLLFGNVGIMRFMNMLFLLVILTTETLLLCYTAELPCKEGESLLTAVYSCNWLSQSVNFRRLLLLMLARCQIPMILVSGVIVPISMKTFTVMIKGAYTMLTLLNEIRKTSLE
T2 sequence (Q9VNB5 1-486 partner): T1 sequence (Q9VNB5 1-486 partner)
The note with it: odorant dilution 10^-1 in hexane, 0.5 s stimulus.

Another assay concerns the target T3, Ir31a (Drosophila melanogaster, UniProt Q8IPB8).
T3 construct: native full-length ionotropic receptor in olfactory sensory neurons of wild-type flies (single sensillum recording); with Ionotropic receptor 8a
T3 sequence (Q8IPB8 18-629): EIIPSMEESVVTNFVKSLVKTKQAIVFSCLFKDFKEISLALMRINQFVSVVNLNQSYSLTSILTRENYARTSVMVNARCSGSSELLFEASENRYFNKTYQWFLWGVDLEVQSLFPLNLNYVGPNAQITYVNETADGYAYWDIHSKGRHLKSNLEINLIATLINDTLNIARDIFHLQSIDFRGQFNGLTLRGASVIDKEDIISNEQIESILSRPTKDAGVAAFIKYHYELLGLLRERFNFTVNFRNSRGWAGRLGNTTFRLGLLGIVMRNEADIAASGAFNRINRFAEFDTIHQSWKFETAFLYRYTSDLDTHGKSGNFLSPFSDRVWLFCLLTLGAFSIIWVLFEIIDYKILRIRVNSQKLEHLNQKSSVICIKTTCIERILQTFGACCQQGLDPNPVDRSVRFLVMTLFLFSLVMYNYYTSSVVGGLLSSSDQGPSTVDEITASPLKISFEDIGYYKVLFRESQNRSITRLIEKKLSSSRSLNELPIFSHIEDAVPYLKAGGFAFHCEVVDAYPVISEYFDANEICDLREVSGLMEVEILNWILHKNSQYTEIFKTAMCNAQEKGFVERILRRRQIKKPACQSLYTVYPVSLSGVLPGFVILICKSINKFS
T3 sequence (Q9W365 18-936 partner): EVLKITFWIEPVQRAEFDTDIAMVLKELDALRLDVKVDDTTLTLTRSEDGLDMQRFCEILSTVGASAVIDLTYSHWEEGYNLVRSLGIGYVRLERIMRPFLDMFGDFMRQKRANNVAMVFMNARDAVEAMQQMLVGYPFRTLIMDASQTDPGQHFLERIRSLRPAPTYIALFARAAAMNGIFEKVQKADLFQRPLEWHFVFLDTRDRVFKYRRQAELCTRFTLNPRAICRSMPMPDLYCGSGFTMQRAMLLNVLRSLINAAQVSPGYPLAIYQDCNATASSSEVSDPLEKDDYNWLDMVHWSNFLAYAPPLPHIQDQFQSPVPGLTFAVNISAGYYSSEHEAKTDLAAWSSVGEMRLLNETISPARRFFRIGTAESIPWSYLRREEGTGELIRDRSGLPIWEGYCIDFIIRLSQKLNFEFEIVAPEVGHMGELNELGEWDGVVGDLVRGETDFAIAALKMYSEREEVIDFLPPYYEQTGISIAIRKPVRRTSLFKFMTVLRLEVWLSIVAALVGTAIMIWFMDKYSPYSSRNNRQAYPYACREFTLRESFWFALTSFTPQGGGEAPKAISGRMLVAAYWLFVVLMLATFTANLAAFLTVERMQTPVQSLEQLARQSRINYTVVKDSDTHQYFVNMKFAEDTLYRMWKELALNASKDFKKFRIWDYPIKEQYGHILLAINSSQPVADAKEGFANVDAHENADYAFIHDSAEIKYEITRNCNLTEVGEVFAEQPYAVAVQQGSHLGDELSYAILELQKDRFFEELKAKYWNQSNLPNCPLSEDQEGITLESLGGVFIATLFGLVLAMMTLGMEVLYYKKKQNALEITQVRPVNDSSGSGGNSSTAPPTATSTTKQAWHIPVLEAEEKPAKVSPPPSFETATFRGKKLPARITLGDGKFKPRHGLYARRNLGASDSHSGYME
The note with it: agonist (best ligand); odorant dilution 10^-1 in hexane, 0.5 s stimulus.

The next assay addresses T4, Or22a (Drosophila melanogaster, UniProt P81909).
T4 construct: native full-length receptor in olfactory sensory neurons (ab3A) of wild-type flies; Or22b may be co-expressed; with Odorant receptor coreceptor
T4 sequence (P81909 1-397): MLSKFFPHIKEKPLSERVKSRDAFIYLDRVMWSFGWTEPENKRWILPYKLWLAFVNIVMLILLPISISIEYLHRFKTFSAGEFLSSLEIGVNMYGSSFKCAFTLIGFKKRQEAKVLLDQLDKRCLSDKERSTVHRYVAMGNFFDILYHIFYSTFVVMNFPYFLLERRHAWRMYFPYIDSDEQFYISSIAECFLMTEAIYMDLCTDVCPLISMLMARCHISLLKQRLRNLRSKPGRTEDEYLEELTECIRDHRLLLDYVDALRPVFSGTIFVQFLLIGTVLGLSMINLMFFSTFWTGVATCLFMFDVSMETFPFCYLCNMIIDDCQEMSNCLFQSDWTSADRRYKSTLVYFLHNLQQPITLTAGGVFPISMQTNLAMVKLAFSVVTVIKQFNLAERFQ
T4 sequence (Q9VNB5 1-486 partner): T1 sequence (Q9VNB5 1-486 partner)
The note with it: agonist; odorant dilution 10^-1 in hexane, 0.5 s stimulus.

With `COc1ccccc1O` [guaiacol], the spikes/s entry on Or49b was “confirming the published ligand–receptor interaction of guaiacol and Or49b”.
For `CC(=O)OC/C=C(\C)CCC=C(C)C` [geranyl acetate], the spikes/s result at Or19a (agonist) is recorded as “OSNs expressing Or19a indeed become activated by high amounts of geranyl acetate”.
`CCCC(=O)C(=O)O` [2-oxo-valeric acid]: the spikes/s entry at Ir31a is on record as “both being chemosensory receptors shown to be activated by stimulation with this odorant”; at Or19a (printed as gated by the odorant, direction not told) it was “Or19a as an OR being gated by 2-oxo-valeric acid”; at Or22a, “both being chemosensory receptors shown to be activated by stimulation with this odorant”.
